In data set [1] the target is T1, human recombinant NRH:quinone oxidoreductase (NQO2) (Homo sapiens, UniProt P16083).
T1 construct: purchased Sigma Q0380
T1 sequence (P16083 1-231): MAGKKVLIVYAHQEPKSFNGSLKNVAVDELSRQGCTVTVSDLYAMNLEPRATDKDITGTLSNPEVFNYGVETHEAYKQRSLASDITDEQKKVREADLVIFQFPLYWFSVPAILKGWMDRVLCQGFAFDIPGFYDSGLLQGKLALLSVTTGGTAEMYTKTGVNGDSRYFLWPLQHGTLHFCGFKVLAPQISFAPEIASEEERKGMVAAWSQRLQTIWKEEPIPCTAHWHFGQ
The experiment in a line: biochemical. The settings on record: for inhibition at 10 µM: read-out: NQO2 Inhibition, %. On the procedure:
The inhibition activity of all synthesized compounds at a concentration of 10 µM was preliminarily tested in vitro using human recombinant NRH:quinone oxidoreductase (NQO2).
The activity of recombinant human NQO2 (Sigma #Q0380, St. Louis, […], USA) was evaluated kinetically using menadione and N-benzyl-dihydronicotinamide (BNAH) as the substrate and co-substrate, respectively. All reagents and test compounds were dissolved in 50 mM Hepes-KOH (pH 7.4) containing 1 mM of β-octyl-D-glucopyranoside, 0.1 mg/mL BSA and 1 μM FAD. […] The solutions of the test compounds were pre-incubated for 5 min with 50 μL of human recombinant NQO2 (final concentration 42 ng/mL). Then, 25 μL of menadione was introduced at a final concentration of 100 μM. The reaction was started with 25 μL of 100 μM BNAH. The fluorescence of the co-substrate BNAH was followed at wavelengths of 370/440 nm at 37 °C using an Infinite M200 Pro microplate reader (Tecan, Grödig, Austria). The fluorescence data was fit according to a one-phase decay nonlinear regression to obtain slope values with Prism 8.0 (GraphPad Inc., San Diego, CA, USA). The activity in sample wells were normalized against negative control and enzyme-blank samples.

Data set [2] is described as follows: Antiproliferative assay (MTT colorimetric test, 72 h). It counts as cell-based. Conditions: human, n.a. = not active, read-out: A549, CC50. The source says: (§1) The cytotoxicity of the synthesized oxindoles was studied using the A549 cell line in which the levels of NQO2 are increased (Table 4). […] The cytotoxicity of the compounds may be due to the inhibition of other enzymes associated with the activation of apoptosis in cancer cells, for example GSK3b or tyrosine kinases, or with the general non-specific toxicity of these compounds. Thus, the influence of NQO2 on A549 cell viability has not been established.
(§2) The A549 cells were maintained in F12-K (Gibco, Paisley, UK) supplemented with 10% fetal bovine serum (FBS, Gibco, UK), penicillin (100 UI mL^−1), streptomycin (100 µg mL^−1) and GlutaMax (2 mM, Gibco, UK). All cells line were cultured under a humidified atmosphere of 95% air/5% CO2 at 37 °C. Subconfluent monolayers, in the log growth phase, were harvested by a brief treatment with TrypLE Express solution (Gibco, UK) in phosphate-buffered saline (PBS, Capricorn Scientific, Ebsdorfergrund, Germany) and washed three times in serum-free PBS. The number of viable cells was determined by trypan blue exclusion.
(§3) The effects of the synthesized compounds on cell viability were determined using the MTT colorimetric test. All examined cells were diluted with the growth medium to 3.5 × 10^4 cells per mL and the aliquots (7 × 10^3 cells per 200 μL) were placed in individual wells in 96-multiplates (Eppendorf, Germany) and incubated for 24 h. […] After incubation, the cells were then treated with 40 μL MTT solution (3-(4,5-dimethylthiazol-2-yl)-2,5-diphenyltetrazolium bromide, 5 mg mL^−1 in PBS) and incubated for 4 h. After an additional 4 h incubation, the medium with MTT was removed and DMSO (150 μL) was added to dissolve the formazan crystals. The plates were shaken for 10 min. The optical density of each well was determined at 560 nm using a microplate reader GloMax Multi+ (Promega, Madison, WI, USA). Each of the tested compounds was evaluated for cytotoxicity in three separate experiments.
For orientation: Tetrazolium assays rely on reduction of a dye to a coloured formazan, in cell work by metabolically active cells.

Data set [3] relates to NQO2. The settings on record: cited from earlier work; for IC50: Figure 1.
Data set [4] has as its system A549 cell line. Put plainly: Antiproliferative assay (MTT colorimetric test, 72 h). Conditions: n.a. = not active. The class given is cell-based.
Source text: as §1, §2, §3

[5] abbreviates: recombinant human NQO2, 100 μM menadione, 100 μM BNAH, read-out: NQO2 IC50 ± SEM.

Like-named read-outs stand apart in the source and are kept apart here.

As usually defined, the IC50 is the concentration that gives 50% inhibition. In general, CC50 refers to the concentration at which the toxic effect on the cells reaches its halfway point. Take `O=C1Nc2ccccc2C1=Cc1ccc(O)cc1` [Compound 14, 3-(4-hydroxybenzylidene)-2-oxindole]: the IC50 in data set [1] was greater than 50 µM. Further, the 50% cytotoxic concentration (CC50) at 72 h in data set [2] was determined as 80.9 ± 12.2 µM.
Consider `COC(=O)Nc1ccc2c(c1)C(=Cc1ccc(O)cc1)C(=O)N2` [Compound 17, 3-(4-hydroxybenzylidene)-5-(methoxycarbonylamino)-2-oxindole], for which, in data set [1] (setting [5]), the IC50 worked out at 0.44 ± 0.02 µM. Also, in data set [2], the half-maximal cytotoxic concentration (CC50) at 72 h was 44.43 ± 0.29 µM.
`O=C1Nc2ccc(NC(=O)c3ccco3)cc2C1=Cc1ccc(O)cc1` [Compound 18, 3-(4-hydroxybenzylidene)-5-furoylamino-2-oxindole]: in data set [1] (setting [5]), the half-inhibitory concentration (IC50) was determined as 0.37 ± 0.02 µM. Further, in data set [2], the CC50 at 72 h was 146 ± 11.3 µM.
Usually inhibition stands for the change of the read-out against control, counted positive when it falls. On to `O=C1Nc2ccc(NC(=O)c3ccccc3)cc2C1=Cc1ccc(O)cc1` [Compound 19, 3-(4-hydroxybenzylidene)-5-benzoylamino-2-oxindole], for which, in data set [1], the inhibition at 10 µM amounted to 62.9%. Also, the CC50 at 72 h in data set [2] was 412.2 ± 3.98 µM.
As for `COc1ccc(C=C2C(=O)Nc3ccccc32)cc1` [Compound 20, 3-((4-methoxyphenyl)methylene)-2-oxindole], the inhibition at 10 µM in data set [1] was found to be 40.8%. In data set [2], the CC50 at 72 h is 54.8 µM.
As for `COc1ccc(C=C2C(=O)Nc3ccc(NC(=O)c4ccccc4)cc32)cc1` [Compound 21, (E,Z)-3-(4-Methoxybenzylidene)-5-benzoylamino-2-oxindole], in data set [1] (setting [5]), the concentration for half-maximal inhibition (IC50) is greater than 50 µM. Besides, the 50% cytotoxic concentration (CC50) at 72 h in data set [2] is 42.3 ± 8.3 µM.
In the case of `COc1cc(C=C2C(=O)Nc3ccccc32)cc(OC)c1OC` [Compound 23, (E,Z)-3-(3,4,5-Trimethoxybenzylidene)-2-oxindole], in data set [1] (setting [5]), the IC50 worked out at 1.6 ± 0.14 µM. The CC50 at 72 h in data set [2] was 25.7 µM.
Regarding `COc1cc(C=C2C(=O)Nc3ccc(NC(C)=O)cc32)cc(OC)c1OC` [Compound 24, 3-(3,4,5-trimethoxybenzylidene)-5-acetylamino-2-oxindole], the IC50 in data set [1] (setting [5]) is 0.37 ± 0.01 µM. Moreover, the CC50 at 72 h in data set [2] came to 149 ± 2.63 µM.
Take `COc1cc(C=C2C(=O)Nc3ccc(NC(=O)c4ccco4)cc32)cc(OC)c1OC` [Compound 25, 3-(3,4,5-trimethoxybenzylidene)-5-furoylamino-2-oxindole]: in data set [1], the half-inhibitory concentration (IC50) came to 0.66 ± 0.02 µM. Moreover, the CC50 at 72 h in data set [2] was determined as 201 ± 22.7 µM.
For `O=C1Nc2ccccc2C1=Cc1ccco1` [Compound 34, 3-(2-furylmethylidene)-2-oxindole], in data set [1], the inhibition at 10 µM was 59.9%. Further, the cytotoxic concentration (CC50) at 72 h in data set [2] was determined as 595 ± 25.4 µM.
For the compound `O=C1Nc2ccc(Br)cc2C1=Cc1ccco1` [Compound 35, 5-bromo-3-(2-furylmethylidene)-2-oxindole], the IC50 in data set [1] was greater than 50 µM. In data set [2], the cytotoxic concentration (CC50) at 72 h is 449 ± 18.7 µM.
Consider `O=C1Nc2ccc([N+](=O)[O-])cc2C1=Cc1ccco1` [Compound 36, 5-nitro-3-(2-furylmethylidene)-2-oxindole], for which the inhibition at 10 µM in data set [1] worked out at 59.5%. Besides, in data set [2], the CC50 at 72 h was determined as 329 ± 17 µM.
On the same counts, the results for `O=C1Nc2ccccc2C1=Cc1cccs1` [Compound 37, 3-(2-thienylmethylidene)-2-oxindole] are 38.1% and 491 ± 19.9 µM.
Regarding `O=C1Nc2ccc(Br)cc2C1=Cc1cccs1` [Compound 38, 5-bromo-3-(2-thienylmethylidene)-2-oxindole], in data set [1], the half-maximal inhibitory concentration (IC50) is greater than 50 µM. For the same compound, in data set [2], the 50% cytotoxic concentration (CC50) at 72 h came out at 427 ± 6.2 µM.
Regarding `Cc1n[nH]cc1C=C1C(=O)Nc2ccccc21` [Compound 43, 3-((3-methyl-1H-pyrazol-4-yl)methylene)-2-oxindole], the IC50 in data set [1] was found to be 7.61 ± 0.19 µM. The CC50 at 72 h in data set [2] was found to be 219 µM.
For the compound `COc1ccc(C(=O)CC2(O)C(=O)Nc3ccc(Br)cc32)cc1` (stereo not shown) [Compound 50, 3-hydroxy-5-bromo-3-[2-(4-methoxyphenyl)-2-oxoethyl]-2-oxindole], the inhibition at 10 µM in data set [1] was found to be 78.8%. Moreover, in data set [2], the CC50 at 72 h was 474 ± 18.2 µM.
For `Cc1ccc(C(=O)CC2(O)C(=O)Nc3ccccc32)cc1` (stereo not shown) [Compound 52, 3-hydroxy-3-[2-(4-methylphenyl)-2-oxoethyl]-2-oxindole], the concentration for half-maximal inhibition (IC50) in data set [1] (setting [5]) is greater than 50 µM. Moreover, the half-maximal cytotoxic concentration (CC50) at 72 h in data set [2] is 171 ± 13.4 µM.
On to `COC(=O)Nc1ccc2[nH]cc(CCNC(C)=O)c2c1` [MCA-NAT], for which the IC50 in data set [3] was 0.037 µM.
`COc1ccc2[nH]cc(CCNC(C)=O)c2c1` [Melatonin]: in data set [3], the IC50 is 6 µM and the “NQO2 inhibition concentration range” value is roughly 50 µM.
As for “(E,Z)-3-(4-Fluorobenzylidene)-2-oxindole [Compound 33]”, in data set [1] (inhibition at 10 µM concentration), the “NQO2 Inhibition, %” value came out at 19.46%. Besides, the IC50 in data set [1] (setting [5]) was greater than 50 µM. This compound also had a 50% cytotoxic concentration (CC50) in data set [4] of 38.6 ± 10.4 µM.

The values are drawn from publication PMC9920986 (Molecules, 2023).
